Measured values: PubChem BioAssay (NCI)
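48-hour exposure; five concentrations; linearly interpolated endpoints. The concentration for full growth arrest is given as TGI.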

Legend:
Assay in all cases: NCI-60 cell line screen, 48 h
IGROV1 ovarian = system: IGROV1 ovarian
MDA-MB-435 = system: MDA-MB-435
SK-MEL-28 melanoma = system: SK-MEL-28 melanoma
SK-MEL-5 melanoma = system: SK-MEL-5 melanoma
SK-OV-3 ovarian = system: SK-OV-3 ovarian
SN12C renal = system: SN12C renal
SW-620 colon = system: SW-620 colon
T-47D breast = system: T-47D breast
U251 CNS = system: U251 CNS
MOLT-4 leukemia = system: MOLT-4 leukemia

| SMILES | TGI (IGROV1 ovarian) [µM] | TGI (MDA-MB-435) [µM] | TGI (SK-MEL-28 melanoma) [µM] | TGI (SK-MEL-5 melanoma) [µM] | TGI (SK-OV-3 ovarian) [µM] | TGI (SN12C renal) [µM] | TGI (SW-620 colon) [µM] | TGI (T-47D breast) [µM] | TGI (U251 CNS) [µM] | TGI (MOLT-4 leukemia) [µM] |
| --- | --- | --- | --- | --- | --- | --- | --- | --- | --- | --- |
| C=CC(=O)N1C/C(=C\c2ccc(Cl)cc2)C(=O)/C(=C/c2ccc(Cl)cc2)C1 | 0.678 | 0.785 | 1.6 | 5.11 | 1.71 | 0.704 | 0.887 | 6.85 | 0.983 | – |
| COc1cc(/C=C2\CCC(C)/C(=C\c3cc(OC)c(OC)c(OC)c3)C2=O)cc(OC)c1OC (stereo not drawn) | 6.58 | > 100 | 25.2 | 5.7 | 62 | 19.2 | > 100 | > 100 | > 100 | – |
| CCOC(=O)C1CCC(=O)N1C(=O)c1ccccc1Cl (stereo not drawn) | > 100 | > 100 | > 100 | > 100 | – | > 100 | > 100 | > 100 | > 100 | > 100 |
| CN1CCN(C2=C(Cl)C3(OCCS3)C(F)(F)C2(F)F)CC1 (stereo not drawn) | > 100 | > 100 | – | 61.7 | > 100 | > 100 | > 100 | > 100 | > 100 | > 100 |
| O=C1CS(=O)(=O)C(c2cccc(Oc3ccccc3)c2)N1c1cc(Cl)ccc1Cl (stereo not drawn) | – | 25.9 | 70.4 | 31.2 | 48.9 | 39 | > 100 | 53.2 | 29.1 | > 100 |
| COC(=O)N1N=C(c2ccccc2)C1c1ccccc1 (stereo not drawn) | – | > 100 | > 100 | – | > 100 | > 100 | > 100 | > 100 | > 100 | > 100 |
| Cc1cccc(/C(Br)=C2/OC(=O)c3ccccc32)c1 | > 100 | > 100 | > 100 | > 100 | > 100 | > 100 | > 100 | – | > 100 | > 100 |
| S=C1NC2=C(CSC/C2=C\c2ccccc2)C(c2ccccc2)N1 (stereo not drawn) | > 100 | – | > 100 | 24.5 | > 100 | > 100 | > 100 | > 100 | > 100 | > 100 |
| Cc1cc(C)nc(NS(=O)(=O)c2ccc(NC(=O)c3cccc4c(NNc5ccc(S(=O)(=O)N=C(N)N)cc5)c5ccccc5nc34)cc2)n1 | > 50 | > 50 | – | > 50 | > 50 | > 50 | > 50 | > 50 | > 50 | > 50 |
| COC(=O)[C@H](Cc1ccccc1)NC(=O)N(CCC#N)CCN(C(=O)N[C@@H](Cc1ccccc1)C(=O)OC)c1ccccc1 | 42.9 | 39.2 | 33.9 | 46.2 | > 100 | 89 | > 100 | 41.6 | – | 41.3 |
| Cc1c(-c2ccccc2)[nH]n(C2=NCCN2)c1=O | > 100 | > 100 | – | > 100 | > 100 | – | > 100 | > 100 | > 100 | > 100 |
| O=[N+]([O-])c1cccc2c(N=Nc3ccc4ccccc4c3O)c(O)cc(S(=O)(=O)O)c12 | > 100 | > 100 | > 100 | > 100 | > 100 | > 100 | > 100 | – | > 100 | > 100 |
| CSc1nc2c(ncn2C2OC(CO)C(O)C(O)C2O)c(=O)[nH]1 (stereo not drawn) | > 100 | – | > 100 | > 100 | > 100 | > 100 | > 100 | – | > 100 | > 100 |
| O=C1C2=C(CCC2)Nc2cccc3ncn1c23 | > 100 | – | > 100 | > 100 | > 100 | > 100 | > 100 | – | > 100 | > 100 |
| C=C1C(=O)C23C(O)CC4C5(C)CCCC4(C(O)OC5)C2C(OC(C)=O)CC1C3O (stereo not drawn) | 39.2 | – | 22.7 | 31.1 | 37.1 | 24.3 | 10.6 | – | 30.7 | 17 |
| O=C1c2cccc(O)c2C(=O)c2c(OC3OC(CO)C(O)C(O)C3O)cccc21 (stereo not drawn) | > 100 | 39.7 | > 100 | 36 | > 100 | > 100 | > 100 | 49.1 | > 100 | – |
| O=[N+]([O-])/C(Cl)=C(\NCCN/C(C(Cl)=C(Cl)Cl)=C(/Cl)[N+](=O)[O-])C(Cl)=C(Cl)Cl | > 100 | > 100 | > 100 | – | > 100 | > 100 | > 100 | > 100 | > 100 | 80.7 |
| COc1ccc([C@H]2C=[N+]([O-])O[C@H](OC3CCCC3)[C@@H]2OC(C)=O)cc1OC | 52.4 | 67.5 | 44.2 | 29.6 | > 100 | – | 53 | 53.2 | > 100 | > 100 |
| O=C(O)/C=C\C(=O)Nc1ccc(S(=O)(=O)c2ccc(NC(=O)/C=C\C(=O)O)cc2)cc1 | > 100 | – | > 100 | > 100 | > 100 | > 100 | > 100 | – | > 100 | > 100 |
| COc1ccc(/C=N/n2c(C)nc3c(sc(=S)n3-c3ccccc3)c2=O)cc1 | > 100 | – | > 100 | > 100 | > 100 | – | > 100 | – | > 100 | > 100 |
| CCN(CC)CCO/N=C1\CC[C@H]2[C@@H]3CCc4cc(OC)ccc4[C@H]3CC[C@]12C | 10.2 | 1.48 | 1.28 | 3.21 | – | 8.12 | 3.47 | 7.13 | 11.6 | 3.72 |
| C[C@H]1OC(=O)[C@@H]2N=NN(Cc3ccccc3)[C@H]12 | – | > 100 | > 100 | > 100 | > 100 | > 100 | > 100 | > 100 | > 100 | > 100 |
| O=C1C2=Nc3ccccc3C(O)(C(=O)O)N2c2ccccc21 (stereo not drawn) | > 100 | 5.5 | > 100 | 27.5 | – | > 100 | > 100 | – | > 100 | > 100 |
